We go through 16 compounds from patent publication US6503928B2, “Arylpiperidine and aryl-1,2,5,6-tetrahydropyridine amide derivatives” (Wyeth, priority 1998, dated 2003).

As a reminder, the melting point is the temperature, or range, at which the solid turns liquid. In general, Ki refers to the dissociation constant of the complex between target and ligand, obtained from inhibition or displacement. A high value points to weaker binding. One may read the EC50 as the concentration at which the effect is half-maximal. Usually Emax stands for the greatest response seen or fitted, relative to the assay's reference. As usually defined, the IC50 is the midpoint of a concentration-inhibition curve.

Structures can show the parent of a compound that is named as a salt.

Series [1] has as its target T1, human 5HT1A receptor (Homo sapiens, UniProt P08908).
T1 construct: expressed in transfected cells; host or cells: CHO cells (stably transfected)
T1 sequence (P08908 1-422): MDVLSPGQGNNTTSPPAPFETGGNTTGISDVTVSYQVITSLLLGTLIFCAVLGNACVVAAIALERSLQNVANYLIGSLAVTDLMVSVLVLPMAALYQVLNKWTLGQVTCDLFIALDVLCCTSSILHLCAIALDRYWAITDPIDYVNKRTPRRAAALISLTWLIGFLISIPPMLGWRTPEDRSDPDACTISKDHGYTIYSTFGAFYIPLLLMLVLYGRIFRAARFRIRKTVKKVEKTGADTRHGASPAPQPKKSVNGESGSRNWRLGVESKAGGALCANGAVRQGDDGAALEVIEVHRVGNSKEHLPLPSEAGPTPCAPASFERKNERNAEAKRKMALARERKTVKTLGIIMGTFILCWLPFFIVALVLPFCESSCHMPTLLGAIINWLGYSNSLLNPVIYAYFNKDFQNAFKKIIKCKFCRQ
The series is described as follows: 5-HT1A receptor binding assay ([3H] 8-OH-DPAT displacement). The settings on record: displacement of [3H] 8-OH-DPAT, CHO cells stably transfected with human 5HT1A receptor. On the procedure: 5-HT1A Receptor Binding Assay
High affinity for the serotonin 5-HT1A receptor was established by testing the compound's ability to displace [^3H] 8-OH-DPAT bindino in CHO cells stably transfected with human 5HT1A receptor. Stably transfected CHO cells are grown in DMEM containing 10% heat inactivated FBS and non-essential amino acids. Cells are scraped off the plate, transferred to centrifuge tubes, and washed twice by centrifugation (2000 rpm for 10 min., 4° C.) in buffer (50 mM Tris pH 7.5). The resulting pellets are aliquoted and placed at −80° C. On the day of assay, the cells are thawed on ice and resuspended in buffer. The binding assay is performed in a 96 well microtiter plate in a total volume of 250 μL. Non-specific binding is determined in the presence of […] 5-HT, final ligand concentration is 1.5 nM. Following a 30 minute incubation at room temperature, the reaction is terminated by the addition of ice cold buffer and rapid filtration through a GF/B filter presoaked for 30 minutes in 0.5% PEI. Compounds are initially tested in a single point assay to determine percent inhibition at […], and Ki values are determined for the active compounds.
In general terms: Loss of bound radioactivity is the signal in a displacement assay; it reports binding, not function.

The target in series [2] is T1, human 5HT1A receptor. The series is described as follows: 5-HT1A receptor intrinsic activity assay (cAMP). It counts as cell-based. To be noted: for EC50: agonist mode: reversal of forskolin-stimulated cAMP in CHO cells transfected with human 5-HT1A; for IC50: antagonist mode: reversal of agonist-induced activity, antagonist preincubated 20 minutes before agonist and forskolin. On the procedure:
5-HT1A Receptor Intrinsic Activity Assay
The intrinsic activity of compounds of the present invention was established by testing the claimed compounds ability to reverse the stimulation of cyclic adenosinemonophosphate (cAMP) in CHO cells stably transfected with the human 5-HT1A receptor.
Stably transfected CHO cells were grown in DMEM containing 10% heat inactivated FBS and non-essential amino acids. The cells are plated at a density of […] cells per well in a 24 well plate and incubated for 2 days in a CO2 incubator. On the second day, the media is replaced with 0.5 mL treatment buffer (DMEM+25 mM HEPES, 5 mM theophylline, 10 μM pargyline) and incubated for 10 minutes at 37° C. Wells are treated with forskolin (1 μM final concentration) followed immediately by the test compound (0.1 and 1 μM for initial screen) and incubated for an additional 10 minutes at 37° C. The reaction is terminated by removal of the media and addition of 0.5 mL ice cold assay buffer (supplied in the RIA kit). Plates are stored at −20° C. prior to assessment of cAMP formation by RIA. EC50 values are determined for the active test compounds. Compounds shown to have no agonist activities (Emax=0%) are further analyzed for their ability to reverse agonist-induced activity. In separate experiments, 6 concentrations of antagonist are preincubated for 20 minutes prior to the addition of agonist and forskolin. Cells are harvested as described above. The cAMP kit is supplied by Amersham and the RIA is performed as per kit instructions, and calculations of IC50 performed by GraphPad Prism.

Setting [3] is: agonist mode: reversal of forskolin-stimulated cAMP, Emax=0% means no agonist activity.

`COc1ccc(F)cc1C1CCN(C[C@@H](Cc2ccccc2)N(C)C(=O)C2(C)CCCCC2)CC1` (as salt: fumarate) [Example 1, 1-Methyl-cyclohexanecarboxylic Acid {(1R)-1-Benzyl-2-[4-(5-fluoro-2-methoxy-phenyl)-piperidine-1-yl]-ethyl}-methyl-amide] yielded a melting point of 160 to 165 °C.

As for `COc1ccccc1C1=CCN(C[C@@H](Cc2ccccc2)NC(=O)C2CCCCC2)CC1` (as salt: fumarate) [Example 3, (R)-Cyclohexanecarboxylic Acid {1-Benzyl-2-[4-(2-methoxy-phenyl)-3,6-dihydro-2H-pyridin-1-yl]-ethyl}-amide], the melting point was 146 to 148 °C. Consider `COc1ccccc1C1=CCN(C[C@@H](Cc2ccccc2)NC(=O)C2(C)CCCCC2)CC1` (as salt: fumarate) [Example 4, (R)-1-Methyl-cyclohexanecarboxylic Acid {1-Benzyl-2-[4-(2-methoxy-phenyl)-3,6-dihydro-2H-pyridin-1-yl]-ethyl}-amide], for which the melting point was in the range of 102 to 104 °C.

`COc1ccccc1C1CCN(C[C@@H](Cc2ccccc2)NC(=O)C2(C)CCCCC2)CC1` (as salt: fumarate) [Example 5, (R)-1-Methyl-cyclohexanecarboxylic Acid {1-Benzyl-2-[4-(2-methoxy-phenyl)-piperidin-1-yl]-ethyl}-amide] showed a melting point of 77 to 79 °C. `COc1ccccc1C1CCN(C[C@@H](Cc2ccccc2)NC(=O)C2CCCCC2)CC1` (as salt: fumarate) [Example 6, (R)-Cyclohexanecarboxylic Acid {1-Benzyl-2-[4-(2-methoxy-phenyl)-piperidin-1-yl]-ethyl}-amide] showed a melting point of 103 to 105 °C. Turning to `COc1ccccc1C1CCN(C[C@@H](Cc2cccnc2)NC(=O)C2(C)CCCCC2)CC1` (as salt: fumarate) [Example 7, 1-Methyl-cyclohexanecarboxylic Acid {(1R)-2-[4-(2-Methoxy-phenyl)-piperidin-1-yl]-1-pyridin-3-ylmethyl-ethyl}-amide], the melting point fell in the range of 99 to 101 °C.

For the compound `COc1ccccc1C1CCN(C[C@@H](Cc2ccncc2)NC(=O)C2(C)CCCCC2)CC1` (as salt: fumarate) [Example 8, 1-Methyl-cyclohexanecarboxylic Acid {(1R)-2-[4-(2-Methoxy-phenyl)-piperidin-1-yl]-1-pyridin-4-ylmethyl-ethyl}-amide], the melting point was in the range of 108 to 110 °C. Turning to `COc1ccccc1C1CCN(C[C@@H](Cc2cccnc2)N(C)C(=O)C2CCCCC2)CC1` (as salt: hydrochloride) [Example 9, Cyclohexanecarboxylic Acids {(1R)-2-[4-(2-Methoxy-phenyl)-piperidin-1-yl]-1-pyridin-3-ylmethyl-ethyl}-methyl-amide], the melting point was 148 to 150 °C.

For `COc1ccccc1C1CCN(C[C@@H](Cc2ccncc2)N(C)C(=O)C2CCCCC2)CC1` (as salt: hydrochloride) [Example 10, Cyclohexanecarboxylic acid {(1R)-2-[4-(2-Methoxy-phenyl)-piperidin-1-yl]-1-pyridin-4-ylmethyl-ethyl}-methyl-amide], the melting point fell in the range of 158 to 160 °C. `COc1ccc(F)cc1C1=CCN(C[C@@H](Cc2ccccc2)N(C)C(=O)C2(C)CCCCC2)CC1` [Example 2, 1-Methyl-cyclohexanecarboxylic Acid {(1R)-1-Benzyl-2-[4-(5-fluoro-2-methoxy-phenyl)-1,2,5,6-tetrahydro-4H-pyridin-1-yl]-ethyl}-methyl-amide] returned a Ki on human 5HT1A receptor [1] of 4.9 nM. The “cAMP Emax” value on human 5HT1A receptor [2] (setting [3]) is listed as 0%. `COc1ccccc1C1=CCN(C[C@@H](Cc2ccccc2)NC(=O)C2CCCCC2)CC1` [Example 3, (R)-Cyclohexanecarboxylic Acid {1-Benzyl-2-[4-(2-methoxy-phenyl)-3,6-dihydro-2H-pyridin-1-yl]-ethyl}-amide]: the Ki at human 5HT1A receptor [1] stood at 0.22 nM. The EC50 on human 5HT1A receptor [2] came to 3.4 nM. As to `COc1ccccc1C1=CCN(C[C@@H](Cc2ccccc2)NC(=O)C2(C)CCCCC2)CC1` [Example 4, (R)-1-Methyl-cyclohexanecarboxylic Acid {1-Benzyl-2-[4-(2-methoxy-phenyl)-3,6-dihydro-2H-pyridin-1-yl]-ethyl}-amide], at human 5HT1A receptor [1], the Ki was 0.25 nM. Moreover, at human 5HT1A receptor [2], the EC50 turned out to be 4.3 nM.

For the compound `COc1ccccc1C1CCN(C[C@@H](Cc2cccnc2)NC(=O)C2(C)CCCCC2)CC1` [Example 7, 1-Methyl-cyclohexanecarboxylic Acid {(1R)-2-[4-(2-Methoxy-phenyl)-piperidin-1-yl]-1-pyridin-3-ylmethyl-ethyl}-amide], on human 5HT1A receptor [1], affinity was put at a Ki of 0.74 nM. Also, at human 5HT1A receptor [2] (setting [3]), the Emax was 0%. For the same compound, the IC50 at human 5HT1A receptor [2] worked out at 38 nM. With `COc1ccccc1C1CCN(C[C@@H](Cc2ccncc2)NC(=O)C2(C)CCCCC2)CC1` [Example 8, 1-Methyl-cyclohexanecarboxylic Acid {(1R)-2-[4-(2-Methoxy-phenyl)-piperidin-1-yl]-1-pyridin-4-ylmethyl-ethyl}-amide], the affinity on human 5HT1A receptor [1], expressed as Ki, was 0.63 nM. Also, the Emax on human 5HT1A receptor [2] (setting [3]) was 0%. Turning to `COc1ccccc1C1CCN(C[C@@H](Cc2cccnc2)N(C)C(=O)C2CCCCC2)CC1` [Example 9, Cyclohexanecarboxylic Acids {(1R)-2-[4-(2-Methoxy-phenyl)-piperidin-1-yl]-1-pyridin-3-ylmethyl-ethyl}-methyl-amide], at human 5HT1A receptor [1], the inhibition constant Ki turned out to be 1.77 nM. Also, at human 5HT1A receptor [2] (setting [3]), the Emax turned out to be 0%. Compound `COc1ccccc1C1CCN(C[C@@H](Cc2ccncc2)N(C)C(=O)C2CCCCC2)CC1` [Example 10, Cyclohexanecarboxylic acid {(1R)-2-[4-(2-Methoxy-phenyl)-piperidin-1-yl]-1-pyridin-4-ylmethyl-ethyl}-methyl-amide] showed a Ki at human 5HT1A receptor [1] of 1.18 nM. Besides, the Emax at human 5HT1A receptor [2] (setting [3]) came out at 0%. Also, the IC50 on human 5HT1A receptor [2] amounted to 19.3 nM.
